# Measured values reported in patent US20260001949A1, “NEUTRALIZATION OF ACYL-COA BINDING PROTEIN FOR THE TREATMENT OF CARDIAC DYSFUNCTION” (INSERM (INSTITUT NATIONAL DE LA SANTÉ ET DE LA RECHERCHE …, priority 2022, published 2026).
# Experiments:
# [1] = tested on: doxorubicin (DOX)-treated C57Bl/6J female mice; assay: Anthracycline (doxorubicin)-induced cardiotoxicity model, echocardiography and organ weights; format: in vivo; settings: chronic DOX, cumulative dose 20 mg/kg body weight IP over 4 weeks, vs saline
# Method: Cardiac toxicity experiments: Eight-week-old C57Bl/6J female mice were purchased from Envigo (Gannat, France). Following 2 weeks of acclimatization, mice were randomized (1:1) to receive either mouse monoclonal anti-ACBP-neutralizing antibody (5 mg/kg body weight, injected intraperitoneally once per week) or mouse isotype IgG (negative control; 5 mg/kg body weight). Each group was further randomized (1:1) to receive a weekly intraperitoneal injection of saline or doxorubicin (5 mg/kg body weight; cumulative dose of 20 mg/kg body weight over 4 weeks) (Sigma, #MKCM8540). Of note, anti-ACBP was always administered 24 hours prior to doxorubicin injection. All mice used in this study were housed in a temperature-controlled environment with 12 h light/dark cycles and ad libitum access to food and water.
# Echocardiography. Mice were lightly anesthetized (5% for induction; 1.5% isoflurane for maintenance) and body temperature was kept at 37° C. using a temperature-controlled heating platform. […] Ejection fraction was determined to assess systolic function, while diastolic function was evaluated using the ratio between peak early-filling velocity of transmitral flow (E) and the corresponding mitral valve annulus velocity (e′) determined using pulsed-wave and tissue Doppler imaging, respectively. […]
# p21 = assay: Immunostaining of senescence marker p21 in cardiac sections of doxorubicin-treated mice; format: in vivo; settings: DOX cumulative 20 mg/kg over 4 weeks; vs saline; FIGS. 2A-2B
# Method: Immunohistochemistry of p21: On the day of euthanasia, left ventricles were briefly rinsed with PBS and fixed for 16-24 h in a 4% formaldehyde solution (F8775, Sigma, diluted in PBS, pH=7.4). After fixation, tissues were transferred to 70% ethanol until inclusion in paraffin. Paraffin-embedded tissue were cut to 2-3 μm sections, air dried and let to dry completely at 60° C. overnight. Cell Conditioning 1 buffer (64/457,5001, Roche) was used for antigen retrieval, and casein (ref: 760-219, Roche) was used as blocking agent. The antibody directed against p21 (clone HUGO 291H/B5, CNIO) was diluted 1:50 in EnVision FLEX Antibody Diluent (K800621, Dako-Agilent). Staining was performed on the Ventana discovery XT platform for 60 minutes (ready-to-use). […] The specificity of the staining was assessed in each organ by using rat IgG isotype control (6-001-F, R&D Systems) as primary antibody.
# Quantification of the p21 staining was done on the QuPath analysis software after blinding the samples names. […] Non-cardiomyocytes regions were excluded from the area of analysis and, after color deconvolution, a threshold was applied to automatically quantify the p21+ cardiomyocytes area. The average value in the 10 regions of interest was plotted for each animal, and analyzed by two-way ANOVA to determine the effect of doxorubicin treatment, ACBP/DBI neutralization, and their interaction.
smiles,measurement,setting,value
"COc1cccc2c1C(=O)c1c(O)c3c(c(O)c1C2=O)C[C@@](O)(C(=O)CO)C[C@@H]3O[C@H]1C[C@H](N)[C@H](O)[C@H](C)O1 [DOX, doxorubicin]",left ventricular ejection fraction,[1]; FIG. 1B,clearly reduced
same,ventricular dilation,[1]; FIG. 1C,causing ventricular dilation
same,p21 staining in cardiomyocytes,p21,increased the presence of p21 staining
